Measurements: ChEMBL document CHEMBL5154940, “Effect of Chiral Purity on Adjuvanticity of Archaeol-Based Glycolipids” (J Med Chem, 2022)
Active and inactive are the calls of the source. The rule behind the calls is not given here.

Key:
[1] = species: Mus musculus; assay: Immuno-adjuvant activity in C57BL/6NCrl mouse assessed as increase in anti-ova total IgG level in serum at 1 mg in presence of 1 ug ovalbumin and measured 20 days post immunization by ELISA; type: functional, organism-based; details: time 20.0 day
[2] = species: Mus musculus; assay: Immuno-adjuvant activity in C57BL/6NCrl mouse assessed as increase in IFN-gamma spot forming cells measured per 10^6 splenocytes at 0.3 mg in presence of 10 ug ovalbumin incubated for 20 hrs with SIINFEKL peptide stimulant and measured on day 28 by AEC chromogen based ELISPOT analysis; type: functional
[3] = (§1) Cytotoxicity against mouse CD8-positive T cells in Ova- immunized C57BL/6NCrl mouse assessed as reduction in cell viability at 1 mg administrated on day 0 and as booster dose on day 21 followed by injection of cells to immunized mouse on day 27 in presence of 1 ug ovalbumin and measured on day 28 by flow cytometry analysis; type: toxicity, cell-based; details: 672 h, time 28 day
[4] = as §1, with “of 10” for “of 1”; type: toxicity, cell-based; details: 672 h, time 28 day
[5] = as §1, with “at 0.3” for “at 1”, “of 10” for “of 1”; type: toxicity, cell-based; details: 672 h, time 28 day
[6] = system: Mus musculus; assay: Immuno-adjuvant activity in C57BL/6NCrl mouse assessed as increase in anti-ova total IgG level in serum at 0.3 to 1 mg administered on day 0 and as booster dose on day 21 in presence of 1 ug ovalbumin measured on day 28 by ELISA; type: functional, organism-based; details: dose 0.3-1 mg, time 28.0 day
[7] = species: Mus musculus; assay: Immuno-adjuvant activity in C57BL/6NCrl mouse assessed as increase in IFN-gamma spot forming cells measured per 10^6 splenocytes at 1 mg in presence of 1 ug ovalbumin incubated for 20 hrs with SIINFEKL peptide stimulant and measured on day 28 by AEC chromogen based ELISPOT analysis; type: functional
[8] = species: Mus musculus; assay: Immuno-adjuvant activity in C57BL/6NCrl mouse assessed as increase in IFN-gamma spot forming cells measured per 10^6 splenocytes at 1 mg in presence of 10 ug ovalbumin incubated for 20 hrs with SIINFEKL peptide stimulant and measured on day 28 by AEC chromogen based ELISPOT analysis; type: functional
[9] = system: Mus musculus; assay: Immuno-adjuvant activity in C57BL/6NCrl mouse assessed as increase in anti-ova total IgG level in serum at 0.3 to 1 mg administered on day 0 and as booster dose on day 21 in presence of 10 ug ovalbumin measured on day 28 by ELISA; type: functional, organism-based; details: dose 0.3-1 mg, time 28.0 day
[10] = species: Mus musculus; assay: Immuno-adjuvant activity in C57BL/6NCrl mouse assessed as increase in anti-ova total IgG level in serum at 0.3 to 1 mg in presence of 10 ug ovalbumin and measured 20 days post immunization by ELISA; type: functional, organism-based; details: dose 0.3-1 mg, time 20.0 day

Row | SMILES | Activity [1] | Activity [2] | Activity [3] | Activity [4] | Activity [5] | Activity [6] | Activity [7] | Activity [8] | Activity [9] | Activity [10]
1 | CC(C)CCC[C@@H](C)CCC[C@@H](C)CCC[C@@H](C)CCOC[C@@H](CO[C@@H]1O[C@H](CO)[C@@H](O[C@@H]2O[C@H](COS(=O)(=O)[O-])[C@H](O)[C@H](O)[C@H]2O)[C@H](O)[C@H]1O)OCC[C@H](C)CCC[C@H](C)CCC[C@H](C)CCCC(C)C.[Na+] | Active | 6 | Toxic | Toxic | Toxic | Active | 6 | 40 | Active | Active
2 | CC(C)CCC[C@@H](C)CCC[C@@H](C)CCC[C@@H](C)CCOC[C@H](CO[C@@H]1O[C@H](CO)[C@@H](O[C@@H]2O[C@H](COS(=O)(=O)[O-])[C@H](O)[C@H](O)[C@H]2O)[C@H](O)[C@H]1O)OCC[C@H](C)CCC[C@H](C)CCC[C@H](C)CCCC(C)C.[Na+] | Active | 6 | Toxic | Toxic | Toxic | Active | 6 | 40 | Active | Active
3 | CC(C)CCCC(C)CCCC(C)CCCC(C)CCOCC(CO[C@@H]1O[C@H](CO)[C@@H](O[C@@H]2O[C@H](COS(=O)(=O)[O-])[C@H](O)[C@H](O)[C@H]2O)[C@H](O)[C@H]1O)OCCC(C)CCCC(C)CCCC(C)CCCC(C)C.[Na+] (stereo not given in full) | Active | 6 | Toxic | Toxic | Toxic | Active | 6 | 40 | Active | Active
